Results from patent US20100075972A1, “AGENT FOR TREATMENT OF MULTIPLE SCLEROSIS” (Kowa Co., Ltd., priority 2007, published 2010).

Tests used:
[1] = tested on: experimental autoimmune encephalomyelitis model; assay: experimental autoimmune encephalomyelitis mouse model, symptom scores; format: in vivo, C57BL/6 mice
Protocol: The experimental autoimmune encephalomyelitis model is established by immunizing a mouse with myelin protein (i.e., myelin-sheath-constituting protein), thereby causing T-cell-mediated autoimmune inflammation in the central nervous system.
Seven-week-old female C57BL/6 mice (Charles River Laboratories Japan, Inc.) were employed. A sensitizing emulsion for causing the mice to develop experimental autoimmune encephalomyelitis was prepared by mixing myelin oligodendrocyte glycoprotein (MOG) 35-55 (Alexis Biochemical) with an equiamount of complete Freund's adjuvant H37Ra (DIFCO) so that the MOG concentration was 2 mg/mL, followed by homogenization under ice cooling by means of Handy Micro Homogenizer (product of Microtec Co., Ltd.). The thus-prepared emulsion (0.1 mL) was intradermally administered to each mouse at its tail base for initial sensitization. On the same day, pertussis toxin dissolved in saline (500 ng/0.3 mL) was intravenously injected to the tail. Two days after initial sensitization, in a manner similar to that described above, pertussis toxin (500 ng/0.3 mL) was intravenously injected for booster. Drug A was orally administered (30 mg/kg) twice a day in the morning (9:00 to 11:00) and in the evening (15:30 to 17:30) from the day following the initial sensitization to 42 days after sensitization.
The drugs were evaluated from the condition of experimentally created autoimmune encephalomyelitis according to the following ratings:
score 1: limp tail or abnormal gait;
score 2: limp tail and abnormal gait;
score 3: paralysis of one limb;
score 4: paralysis of two or more limbs; and
In FIGS. 1 and 2 and Table 1, the data for each group (10 mice) are represented by average value±standard error (non-parametric Dunnett's test).

F4/80 mRNA = F4/80 mRNA expression in the spinal cord of experimental autoimmune encephalomyelitis mice (real-time PCR); format: in vivo; settings: day 42, spinal cord of EAE mice of Example 1, corrected by ribosomal RNA
Description: (§1) On day 42, the spinal cord was removed from the mice employed in Example 1, and total RNA was recovered by use of ISOGEN (Nippon Gene Co., Ltd.). For comparison, similarly, the spinal cord was extirpated from unsensitized normal mice, and was employed for the below-described quantitative determination. cDNA was synthesized from the thus-obtained total RNA by use of a reverse transcriptase, and the amount of mRNA of the following gene (F4/80, TNF-α, IL-1β, or IL-6) was quantitatively determined by means of an ABI PRISM 7900HT system (Applied Biosystems) through real-time PCR employing a TaqMan probe according to the protocol of Applied Biosystems. Meanwhile, the amount of ribosomal RNA was determined, and employed for correction.

TNF-α mRNA = TNF-α mRNA expression in the spinal cord of experimental autoimmune encephalomyelitis mice (real-time PCR); format: in vivo; settings: day 42, spinal cord of EAE mice of Example 1, corrected by ribosomal RNA
Description: as §1

IL-1β mRNA = IL-1β mRNA expression in the spinal cord of experimental autoimmune encephalomyelitis mice (real-time PCR); format: in vivo; settings: day 42, spinal cord of EAE mice of Example 1, corrected by ribosomal RNA
Description: as §1

IL-6 mRNA = IL-6 mRNA expression in the spinal cord of experimental autoimmune encephalomyelitis mice (real-time PCR); format: in vivo; settings: day 42, spinal cord of EAE mice of Example 1, corrected by ribosomal RNA
Description: as §1

[2] = tested on: interleukin-1β production; settings: as disclosed in WO 99/25697; cited from earlier work
[3] = oral administration of drug A 30 mg/kg twice a day

CSc1ccc(-c2nn(Cc3ccccc3)c(=O)cc2-c2ccc(Cl)cc2)cc1 [Drug A, 2-Benzyl-5-(4-chlorophenyl)-6-[4-(methylthio)phenyl]-2H-pyridazin-3-one]
Incidence rate, symptoms corresponding to score 2 or worse ([1]; EAE mice, 10 per group, Drug A 30 mg/kg orally twice a day to day 42, IFN-β 10,000 IU/individual subcutaneously every other day): 8/10
death case during the experiment (score 5) ([1]; EAE mice, 42 days after sensitization, Drug A 30 mg/kg orally twice a day, IFN-β 10,000 IU/individual s.c. every other day): no death case was observed
Days required for onset, symptoms corresponding to score 2 or worse ([1]; EAE mice, average ± standard error, Drug A 30 mg/kg orally twice a day, IFN-β 10,000 IU/individual subcutaneously every other day): 22.4 ± 1.5 days
experimental autoimmune encephalomyelitis scores (FIG. 1) [1, 3]: ameliorated to almost the same extent as in the case of IFN-β
maximum score of experimental autoimmune encephalomyelitis symptoms (FIG. 2) [1, 3]: tended to be reduced
onset of symptoms corresponding to score 2 or worse (in words) [1, 3]: tended to be delayed
amount of expression of mRNA of F4/80 in spinal cord (F4/80 mRNA): found to be reduced
expression of TNF-α mRNA in spinal cord (TNF-α mRNA): found to be reduced
expression of IL-1β mRNA in spinal cord (IL-1β mRNA): found to be reduced
expression of IL-6 mRNA in spinal cord (IL-6 mRNA): found to be reduced
interleukin-1β production inhibitory effect [2]: excellent
